Results reported in patent publication US20200054587A1, “METHODS AND MATERIALS FOR REDUCING SCARRING ASSOCIATED WITH ARTHROFIBROSIS OR TENDON INJURY” (Mayo Foundation for Medical Education and Research, priority 2018, published 2020).
Read-outs that look alike come from different tables or passages of the source.

Legend:
[1] = test system: adipose tissue-derived mesenchymal stem cells (aMSC); test: Live/dead cytotoxicity staining (Calcein AM / Ethidium Homdimer-1); settings: after initial exposure, absence of any dead-cell staining, FIG. 1B
flexor tendon injury = test: In vivo turkey flexor tendon injury model; settings: 50 mg powder applied to repaired tendon, 6 weeks
Source text: Flexor tendon injuries are common and pose a clinical challenge for functional restoration. Postoperative repair rupture and scar formation results in prolonged work disability for patients. […] Twelve male turkeys underwent surgical flexor tendon cut and repair. […] After sacrifice, digits were collected and analyzed for adhesion formation as well as healing at the macrolevel.

ACTA2 = test: qPCR of alpha smooth muscle actin gene in posterior capsule tissue, rabbit knee arthrofibrosis model; format: in vivo; settings: rabbit posterior capsule tissue at 24 weeks, FIG. 3B
Method: (§1) All rabbits underwent luxation (hyperextension) and arthrodesis (fixation) of the operative knee. […] After eight weeks, the arthrodesis was reversed. Rabbits were allowed to roam free in individual spaces (1 m^2) for the entire 24 week duration. Angles of passive extension of operative and contralateral, non-operative limbs were measured at 8, 10, 16, and 24 weeks, using a validated dynamic load cell device. Rabbits were sacrificed at 24 weeks and samples of the posterior capsule were taking from the operative and contralateral, non-operative knee. Data from mRNA extraction and qPCR were obtained to analyze expression of alpha-1 collagen (COL1A1, COL2A1 and COL5A1) and alpha smooth muscle actin (ACTA2), all of which are involved in fibrosis.

knee arthrofibrosis = test: Rabbit knee arthrofibrosis model, passive range of motion; format: in vivo; settings: 50 mg in gel injected into the joint capsule during surgery
Method: as §1

[2] = test system: COL1A1, COL2A1 and COL5A1; test: qPCR of collagen genes in posterior capsule tissue, rabbit knee arthrofibrosis model; format: in vivo; settings: rabbit posterior capsule tissue at 24 weeks, FIG. 3A
Method: as §1

[3] = cited from earlier work

Structure (SMILES): N=C(N)c1ccc(OCCCCCOc2ccc(C(=N)N)cc2)cc1 [pentamidine, 4,4′-[pentane-1,5-diylbis(oxy)]dibenzenecarboximid-amide]
- cytotoxic effect (Ethidium Homdimer-1 staining) [1]: no cytotoxic effect
- post-operative scar formation (gross anatomy) vs control (flexor tendon injury): marked reduction
- adhesion score, 0 (no adhesion) to 8 (very severe) (flexor tendon injury; all six treated turkeys, FIG. 4): significantly reduced
- ACTA2 gene expression vs control tissue (ACTA2): decreased
- passive range of motion (ROM), pentamidine vs control rabbits (knee arthrofibrosis; 24 weeks, p=0.0082): statistically significant difference
- passive range of motion (ROM), pentamidine vs control rabbits (knee arthrofibrosis; eight weeks, p=0.0303): statistically significant difference
- collagen (COL1A1, COL2A1 and COL5A1) expression vs control tissue [2]: decreased

Structure (SMILES): N=C(N)c1ccc(OCCCCCOc2ccc(C(=N)N)cc2)cc1 [Pentamidine isethionate, 4,4-[1,5-pentanediylbis(oxy)]bis-benzenecarboximidamid]
- solubility ([3]; acetone): insoluble
- solubility ([3]; alcohol): soluble
- solubility ([3]; chloroform): insoluble
- solubility ([3]; ether): insoluble
- solubility ([3]; glycerin): soluble
- solubility ([3]; water): soluble
